Assays:
Escherichia coli [1] = test: Inhibition of biofilm formation in Escherichia coli TG1 at 25 degree C measured after 24 hrs by crystal violet staining based microplate reader analysis; type: functional, organism-based; details: TG1, 24 h
Escherichia coli [2] = test: Antibacterial activity against Escherichia coli TG1 at 25 degree C measured after 24 hrs by crystal violet staining based microplate reader analysis; type: functional, organism-based; details: TG1, 24 h
Pseudomonas aeruginosa [3] = test: Inhibition of biofilm formation in Pseudomonas aeruginosa PA14 at 25 degree C measured after 24 hrs by crystal violet staining based analysis; type: functional, organism-based; details: PA14, 24 h
Pseudomonas aeruginosa [4] = test: Antibacterial activity against Pseudomonas aeruginosa PA14 at 25 degree C measured after 24 hrs by crystal violet staining based microplate reader analysis; type: functional, organism-based; details: PA14, 24 h
Staphylococcus aureus [5] = test: Inhibition of biofilm formation in Staphylococcus aureus SH1000 at 25 degree C measured after 48 hrs by crystal violet staining based analysis; type: functional, organism-based; details: SH1000, 48 h
Staphylococcus aureus [6] = test: Antibacterial activity against Staphylococcus aureus SH1000 at 25 degree C measured after 48 hrs by crystal violet staining based microplate reader analysis; type: functional, organism-based; details: SH1000, 48 h
[7] = tested on: Staphylococcus epidermidis; test: Inhibition of biofilm formation in Staphylococcus epidermidis at 25 degree C measured after 48 hrs by crystal violet staining based analysis; type: functional, organism-based
Staphylococcus aureus [8] = test: Inhibition of biofilm formation in methicillin-resistant Staphylococcus aureus at 25 degree C measured after 48 hrs by crystal violet staining based analysis; type: functional, organism-based
Staphylococcus aureus [9] = test: Antibacterial activity against methicillin-resistant Staphylococcus aureus at 25 degree C measured after 48 hrs by crystal violet staining based microplate reader analysis; type: functional, organism-based
[10] = Cytotoxicity against human PBMC cells assessed as survival rate at 25 to 100 uM measured after 72 hrs by trypan blue staining based assay; type: toxicity, cell-based; details: dose 25-100 µM
[11] = Cytotoxicity against human PBMC cells assessed as survival rate at 400 uM measured after 72 hrs by trypan blue staining based assay (reference value: 48%); type: toxicity, cell-based; details: read-out: Survival
[12] = Genotoxicity in human CAPAN-1 cells at 100 to 400 uM measured after 3 hrs by Western blot analysis; type: toxicity, cell-based; details: capan-1, 3 h, dose 100-400 µM
[13] = Toxicity in Caenorhabditis elegans CB5612 by wide field microscopy based analysis
[14] = Cytotoxicity against human PBMC cells assessed as survival rate at 400 uM measured after 72 hrs by trypan blue staining based assay relative to control; type: toxicity, cell-based; details: read-out: Survival
[15] = tested on: Staphylococcus epidermidis; test: Antibacterial activity against Staphylococcus epidermidis at 25 degree C measured after 48 hrs by crystal violet staining based microplate reader analysis; type: functional, organism-based
[16] = Cytotoxicity against human DND41 cells assessed as inhibition of cell growth measured after 72 hrs by CellTiter 96 Aqueous One Solution Cell Proliferation Assay; type: functional
K562 = test: Cytotoxicity against human K562 cells assessed as inhibition of cell growth measured after 72 hrs by CellTiter 96 Aqueous One Solution Cell Proliferation Assay; type: functional
Z-138 = test: Cytotoxicity against human Z138 cells assessed as inhibition of cell growth measured after 72 hrs by CellTiter 96 Aqueous One Solution Cell Proliferation Assay; type: functional
HL-60 = test: Cytotoxicity against human HL-60 cells assessed as inhibition of cell growth measured after 72 hrs by CellTiter 96 Aqueous One Solution Cell Proliferation Assay; type: functional
[17] = Cytotoxicity against human PBMC cells assessed as survival rate at 25 uM measured after 72 hrs by trypan blue staining based assay relative to control; type: toxicity, cell-based; details: read-out: Survival
[18] = Cytotoxicity against human PBMC cells assessed as survival rate at 100 uM measured after 72 hrs by trypan blue staining based assay relative to control; type: toxicity, cell-based; details: read-out: Survival
[19] = Genotoxicity in human CAPAN-1 cells assessed as fold change at 400 uM measured after 3 hrs by Western blot analysis; type: toxicity, cell-based; details: capan-1, 3 h
CAPAN-1 = test: Cytotoxicity against human CAPAN-1 cells assessed as inhibition of cell growth measured after 72 hrs by CellTiter 96 Aqueous One Solution Cell Proliferation Assay; type: functional
NCI-H460 = test: Cytotoxicity against human NCI-H460 cells assessed as inhibition of cell growth measured after 72 hrs by CellTiter 96 Aqueous One Solution Cell Proliferation Assay; type: functional
LN-229 = test: Cytotoxicity against human LN-229 cells assessed as inhibition of cell growth measured after 72 hrs by CellTiter 96 Aqueous One Solution Cell Proliferation Assay; type: functional
HCT-116 = test: Cytotoxicity against human HCT-116 cells assessed as inhibition of cell growth measured after 72 hrs by CellTiter 96 Aqueous One Solution Cell Proliferation Assay; type: functional
[20] = Genotoxicity in human CAPAN-1 cells assessed as fold change at 100 uM measured after 3 hrs by Western blot analysis; type: toxicity, cell-based; details: capan-1, 3 h
[21] = Toxicity in Caenorhabditis elegans CB5612 assessed as increase in food depletion delay by wide field microscopy based analysis

| Structure (SMILES) | IC50 (Escherichia coli [1]) [µM] | IC50 (Escherichia coli [2]) [µM] | IC50 (Pseudomonas aeruginosa [3]) [µM] | IC50 (Pseudomonas aeruginosa [4]) [µM] | IC50 (Staphylococcus aureus [5]) [µM] | IC50 (Staphylococcus aureus [6]) [µM] | IC50 [7] [µM] | IC50 (Staphylococcus aureus [8]) [µM] | IC50 (Staphylococcus aureus [9]) [µM] | IC50 [15] [µM] | fold change (FC) [19] | further results |
| --- | --- | --- | --- | --- | --- | --- | --- | --- | --- | --- | --- | --- |
| CCCCCCCCNc1ncc(-c2ccc(Cl)cc2)[nH]1 | 8.42 | 72.3 | > 200 | 70.2 | 43.1 | 84.4 |  |  |  |  |  |  |
| NCCCCCCCCn1c(-c2ccccc2)cnc1NC1CCCC1 | 33.5 | 85.1 | 107 | 74.4 | 70.4 | 79.4 |  |  |  |  |  |  |
| CCCCCCCCn1c(-c2ccccc2)cnc1NC1CCCC1 | 6.55 | 8.37 | > 800 | 20.6 | 8.34 | 8.35 |  |  |  |  |  |  |
| NCCCCNc1ncc(-c2ccccc2)[nH]1 | 35.3 | 56.6 | 17 | 85.8 | 155 | 287 | 33.3 | 138 | 578 |  |  | Activity [10]: Non-toxic; viability at 72 h, 400 µM [11]: 9%; Activity [12]: Non-toxic |
| NCCCCNc1ncc(-c2ccc(F)cc2)[nH]1 | 14.9 | 31.5 | 4.5 | 34.6 | 167 | 176 | 6.1 | 98.1 | 217 |  |  | Activity [13]: Toxic |
| NCCCCCCCCn1c(-c2ccc(Br)cc2)cnc1NC1CCCC1 | 25.2 | 43.4 | 147 | 61.4 | 167 | 56.1 |  |  |  |  |  | viability at 72 h, 400 µM [14]: 48% |
| NCCCCCCCCNc1ncc(-c2ccc(Cl)cc2)[nH]1 | 16.6 | 16.9 | 19.2 | 21 | 15.8 | 12.5 | 59.6 | 34.8 | 93.7 | 51.2 | 12.1 | CC50 [16]: 20 µM; CC50 (K562; Homo sapiens, K562, 72 h): 20 µM; CC50 (Z-138; 72 h): 20 µM; CC50 (Z-138; Homo sapiens, Z-138, 72 h): 21.6 µM; CC50 (HL-60): 20 µM; viability at 72 h, 25 µM [17]: 79.6%; viability at 72 h, 100 µM [18]: 17.5%; viability at 72 h, 400 µM [14]: 0.5% |
| NCCCCCCNc1ncc(-c2ccc(Cl)cc2)[nH]1 | 3.28 | 16.1 | 4.24 | 22.3 | 86.5 | 71.2 | 42.1 | 28.3 | 16.1 | 90.8 | 14.6 | CC50 (CAPAN-1): 40 µM; CC50 (NCI-H460): 40 µM; CC50 (LN-229; Homo sapiens, LN-229, 72 h): 40 µM; CC50 (K562; Homo sapiens, K562, 72 h): 36.2 µM; CC50 (Z-138; Homo sapiens, Z-138, 72 h): 11 µM; CC50 (HCT-116): 40 µM; CC50 (HL-60): 13.2 µM |
| NCCCCCCCNc1ncc(-c2ccccc2)[nH]1 | 17.3 | 39.7 | 12.4 | 33.3 | 64.7 | 106 | 12.3 | 48.9 | 72.6 |  |  | CC50 (CAPAN-1): 41.1 µM; CC50 (NCI-H460): 68.8 µM; Activity [12]: Non-toxic |
| NCCCCCCCCCCCCNc1ncc(-c2ccccc2)[nH]1 | 9.6 | 9.5 | 6.7 | 12.3 | 25.4 | 14 | 23.8 | 12.8 | 19.7 | 32 | 1.95 | viability at 72 h, 25 µM [17]: 6%; viability at 72 h, 100 µM [18]: < 50%; viability at 72 h, 400 µM [14]: 4.5%; fold change (FC) [20]: 2.75; Time [21]: 3.5 days |
| NCCCCCCCCCCCNc1ncc(-c2ccccc2)[nH]1 | 15.5 | 14.2 | 8.3 | 16.7 | 37.5 | 28.6 | 1.8 | 18.1 | 47.7 | 25 | 1.75 | Time [21]: 3 days |
| NCCCCCCCCNc1ncc(-c2ccc(F)cc2)[nH]1 | 12.8 | 21.6 | 13.1 | 26.6 | 47.6 | 90.7 | 15.7 | 36.8 | 79.9 |  | 2.35 | CC50 [16]: 46.4 µM; CC50 (HCT-116): 29.9 µM; viability at 72 h, 25 µM [17]: 56.4%; viability at 72 h, 100 µM [18]: 70%; viability at 72 h, 400 µM [14]: 22.9%; Activity [13]: Toxic |
| CCCCCCNc1ncc(-c2ccc(Cl)cc2)[nH]1 | 11.3 | 21.8 | 40.6 | 38.7 | 141 | 186 |  |  |  |  |  |  |
| NCCCCCCCCNc1ncc(-c2ccccc2)[nH]1 | 13.5 | 15.6 | 12.7 | 21.1 | 21.1 | 40.6 | 3.5 | 35.3 | 45.4 | 20.4 |  | CC50 (CAPAN-1): 30 µM; CC50 (NCI-H460): 30 µM; CC50 (LN-229; 72 h): 30 µM; CC50 (LN-229; Homo sapiens, LN-229, 72 h): 52.9 µM; CC50 [16]: 58.3 µM; CC50 (K562; 72 h): 30 µM; CC50 (K562; Homo sapiens, K562, 72 h): 57.4 µM; CC50 (Z-138; 72 h): 30 µM; CC50 (Z-138; Homo sapiens, Z-138, 72 h): 49.7 µM; CC50 (HL-60): 30 µM; viability at 72 h, 100 µM [18]: < 50%; Activity [12]: Non-toxic |
| CCCCCCCCn1c(-c2ccc(Br)cc2)cnc1NC1CCCC1 | 14 | 25.7 | > 800 | 25.2 | 63.2 | 33.1 |  |  |  |  |  |  |
| NCCCCCCNc1ncc(-c2ccc(Br)cc2)[nH]1 | 14.2 | 21 | 11.2 | 27.4 | 59.6 | 38.6 | 35.3 | 60 | 106 | 85.2 | 5.75 | CC50 (CAPAN-1): 40 µM; CC50 (NCI-H460): 40 µM; CC50 (LN-229; Homo sapiens, LN-229, 72 h): 40 µM; CC50 (HCT-116): 40 µM; fold change (FC) [20]: 2.3; Time [21]: 0.66 days |
| NCCCCCNc1ncc(-c2ccccc2)[nH]1 | 38.3 | 80 | 16.5 | 61.2 | 91.7 | 224 | 25.6 | 154 | 503 |  |  | Activity [12]: Non-toxic |
| NCCCCCCCCNc1ncc(-c2ccc(Br)cc2)[nH]1 | 6.8 | 17.6 | 7.8 | 14.5 | 46.1 | 36.7 | 12.6 | 26.3 | 61.8 |  |  | CC50 (CAPAN-1): 30 µM; CC50 (NCI-H460): 30 µM; CC50 (LN-229; Homo sapiens, LN-229, 72 h): 30 µM; CC50 (K562; Homo sapiens, K562, 72 h): 30 µM; CC50 (Z-138; Homo sapiens, Z-138, 72 h): 30 µM; CC50 (HL-60): 30 µM; viability at 72 h, 25 µM [17]: 79.8%; viability at 72 h, 100 µM [18]: 94%; viability at 72 h, 400 µM [14]: 30.2%; Activity [13]: Toxic |
| NCCCCCCCCCCNc1ncc(-c2ccccc2)[nH]1 | 18.6 | 17.8 | 16.8 | 60.7 | 24.9 | 15.3 | 8.2 | 19.8 | 23.8 | 25.7 | 2 | CC50 (HCT-116): 46.9 µM; CC50 (HL-60): 47.1 µM |
| CCc1c2c(nc3ccc(O)cc13)-c1cc3c(c(=O)n1C2)COC(=O)[C@]3(O)CC [7-ETHYL-10-HYDROXYCAMPTOTHECIN] |  |  |  |  |  |  |  |  |  |  | 9 | fold change (FC) [20]: > 7 |
| OB(O)O [BORIC ACID] |  |  |  |  |  |  |  |  |  |  |  | Time [21]: > 10 days |
| COc1cc([C@@H]2c3cc4c(cc3[C@@H](O[C@@H]3O[C@@H]5CO[C@@H](C)O[C@H]5[C@H](O)[C@H]3O)[C@H]3COC(=O)[C@H]23)OCO4)cc(OC)c1O [ETOPOSIDE] |  |  |  |  |  |  |  |  |  |  | > 8 | viability at 72 h, 25 µM [17]: < 67%; viability at 72 h, 100 µM [18]: 71%; viability at 72 h, 400 µM [14]: 38%; fold change (FC) [20]: 10 |
